Test results: the CheMixHub ionic liquid set

Assay: xn = mol fraction of the nth substance listed

CO/N=C(\C(=O)N[C@@H]1C(=O)N2C(C(=O)[O-])=C(CSc3nc(=O)c(=O)[n-]n3C)CS[C@H]12)c1csc(N)n1.[Na+].[Na+] + CCCCCCCC[n+]1ccc(C)cc1.[Br-] + O
viscosity [mPa·s], 100 kPa
Settings	x1 = 0.0003495, x2 = 0	x1 = 0.0008732, x2 = 0	x1 = 0.001391, x2 = 0	x1 = 0.002502, x2 = 0	x1 = 0.00312, x2 = 0	x1 = 0.003888, x2 = 0	x1 = 0.004767, x2 = 0	x1 = 0.005484, x2 = 0
288.15 K	1.196	1.273	1.365	1.604	1.745	1.964	2.205	2.45
293.15 K	1.053	1.12	1.2	1.399	1.527	1.701	1.918	2.122
298.15 K	0.935	0.994	1.062	1.231	1.348	1.495	1.674	1.858
303.15 K	0.829	0.885	0.945	1.1	1.195	1.323	1.48	1.638
308.15 K	0.744	0.794	0.849	0.982	1.07	1.184	1.322	1.455

C[N+](C)(C)Cc1ccccc1.[Cl-] + OCC(O)CO
Settings	electrical conductivity, 298 K [S/m]	viscosity, 288.15 K [mPa·s]	viscosity, 308 K [mPa·s]
100 kPa, x1 = 0.25	–	1875	–
101.13 kPa, x1 = 0.5	0.069	–	80

ClCCl + CCCC[n+]1ccn(C)c1.F[P-](F)(F)(F)(F)F
298.15 K, 101 kPa
Settings	electrical conductivity [S/m]	viscosity [mPa·s]
x1 = 0.2451	0.394	89
x1 = 0.4351	0.731	34.7

CCCCCCCC[N+](CCCCCCCC)(CCCCCCCC)CCCCCCCC.[Br-] + CCCCCC(=O)O
Settings	electrical conductivity [S/m]
298.1 K, 100 kPa, x1 = 0.333	4.5e-06
